Test results published in US20090221532A1 (priority 2005, published 2009).

What was measured:
patients = conditions: anesthetic induction doses; Bryson et al.; cited from earlier work
[1] = Population pharmacokinetic model (linear 5-compartment, NONMEM) of venous plasma concentrations; parameters: species or system human; conditions: population PK model; lean body weight covariate
[2] = Stella reports, cited from earlier work
[3] = Pharmacokinetic/pharmacodynamic models (probabilistic and continuous) for level of sedation (MOAA/S score); parameters: species or system human; conditions: subjects older than 65

Row | SMILES | Patients with respiratory consequences, including a reduction in tidal volume and apnea (patients) | Increase of central volume of propofol generated from the prodrug [1] | Increase of central volume of the prodrug [1] | Increase of clearance of the prodrug [1] | Stability at pH levels suitable for making pharmaceutical formulations [2] | Breakdown in vivo under physiological conditions ([2]; administered intravenously) | Lowering of effect site concentration at which a given MOAA/S score is attained, versus younger subjects ([3]; continuous model) | Lowering of effect site concentration at which a given MOAA/S score is attained, versus younger subjects ([3]; probabilistic model)
1 | CC(C)c1cccc(C(C)C)c1O [propofol] | up to 83% |  |  |  |  |  |  | 
2 | CC(C)c1cccc(C(C)C)c1OCOP(=O)([O-])[O-].[Na+].[Na+] [propofol prodrug, O-phosphonooxymethyl propofol disodium salt] |  | 2.5 % per kg of LBW over 55 kg | 1.8 % per kg of LBW over 55 kg | 1.4 % per kg of LBW over 55 kg | good stability | quickly breaks down in vivo | about 25% | about 33%
